Results from the supplement of paper PMC6045584.
± gives the standard deviation of the averaged measurements.

What was measured:
[1] = compound: CC(=O)NCC(=O)N1[C@@H]2CC[C@H]1c1ccc(Nc3ncc(C(F)(F)F)c(NC4CCC4)n3)cc12; assay: surviving fraction relative to DMSO-only wells; higher = less growth inhibition; settings: exposure time: 5 days
Summary of the method: (§1)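 After seeding at 250–500 cells per well in 384-well plates and a 24-hour wait, log-phase tumour cell lines were exposed without interruption for five days to inhibitors at 0.5, 1, 5, 10, 50, 100, 500 and 1000 nM. CellTiter-Glo luminescence was recorded after 10 minutes at room temperature. Viability is reported as surviving fraction, the luminescence normalised to the median of DMSO-only wells.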

PACLITAXEL [2] = compound: T1, CC(=O)O[C@H]1C(=O)[C@@]2(C)[C@H]([C@H](OC(=O)c3ccccc3)[C@]3(O)C[C@H](OC(=O)[C@H](O)[C@@H](NC(=O)c4ccccc4)c4ccccc4)C(C)=C1C3(C)C)[C@]1(OC(C)=O)CO[C@@H]1C[C@@H]2O [PACLITAXEL]; assay: as above; settings: exposure time: 5 days
Summary of the method: as §1

[3] = compound: CC(=O)c1c(C)c2cnc(Nc3ccc(N4CCNCC4)cn3)nc2n(C2CCCC2)c1=O; assay: as above; settings: exposure time: 5 days
Summary of the method: as §1

CAMPTOTHECIN [4] = compound: T2, CC[C@@]1(O)C(=O)OCc2c1cc1n(c2=O)Cc2cc3ccccc3nc2-1 [CAMPTOTHECIN]; assay: as above; settings: exposure time: 5 days
Summary of the method: as §1

YM155 [5] = compound: T3, COCC[n+]1c2c(n(Cc3cnccn3)c1C)C(=O)c1ccccc1C2=O [YM155]; assay: as above; settings: exposure time: 5 days
Summary of the method: as §1

GEFITINIB [6] = compound: T4, COc1cc2ncnc(Nc3ccc(F)c(Cl)c3)c2cc1OCCCN1CCOCC1 [GEFITINIB]; assay: as above; settings: exposure time: 5 days
Summary of the method: as §1

OSI-906 [7] = compound: T5, C[C@]1(O)C[C@@H](c2nc(-c3ccc4ccc(-c5ccccc5)nc4c3)c3c(N)nccn32)C1 [OSI-906]; assay: as above; settings: exposure time: 5 days
Summary of the method: as §1

CELECOXIB = compound: Cc1ccc(-c2cc(C(F)(F)F)nn2-c2ccc(S(N)(=O)=O)cc2)cc1 [CELECOXIB]; assay: as above; settings: exposure time: 5 days
Summary of the method: as §1

CARBOPLATIN [8] = compound: T6, O=C(O)C1(C(=O)O)CCC1.[NH2-].[NH2-].[Pt+2] [CARBOPLATIN]; assay: as above; settings: exposure time: 5 days
Summary of the method: as §1

[9] = compound: CC(=O)NCC(=O)N1[C@@H]2CC[C@H]1c1ccc(Nc3ncc(C(F)(F)F)c(NC4CCC4)n3)cc12; assay: area under dose-response curve of surviving fraction (unscaled, Aref=0) (surviving fraction x log10(nM)); higher = more resistant; settings: exposure time: 5 days; dose range 0.5-1000 nM
Summary of the method: (§2)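 Each tumour cell line was screened three times in 384-well plates, receiving eight inhibitor concentrations from 0.5 to 1000 nM for five days. CellTiter-Glo luminescence gave viability, normalised to DMSO-only wells. Using the drc R package, surviving fractions were fitted with 3-parameter logistic dose-response curves, and the unscaled activity area over log10 dose (Aref = 0) was taken as the area under the curve.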

PACLITAXEL [10] = compound: T1, PACLITAXEL; assay: as above; settings: exposure time: 5 days; dose range 0.5-1000 nM
Summary of the method: as §2

[11] = compound: CC(=O)c1c(C)c2cnc(Nc3ccc(N4CCNCC4)cn3)nc2n(C2CCCC2)c1=O; assay: as above; settings: exposure time: 5 days; dose range 0.5-1000 nM
Summary of the method: as §2

CAMPTOTHECIN [12] = compound: T2, CAMPTOTHECIN; assay: as above; settings: exposure time: 5 days; dose range 0.5-1000 nM
Summary of the method: as §2

YM155 [13] = compound: T3, YM155; assay: as above; settings: exposure time: 5 days; dose range 0.5-1000 nM
Summary of the method: as §2

GEFITINIB [14] = compound: T4, GEFITINIB; assay: as above; settings: exposure time: 5 days; dose range 0.5-1000 nM
Summary of the method: as §2

OSI-906 [15] = compound: T5, OSI-906; assay: as above; settings: exposure time: 5 days; dose range 0.5-1000 nM
Summary of the method: as §2

CARBOPLATIN [16] = compound: T6, CARBOPLATIN; assay: as above; settings: exposure time: 5 days; dose range 0.5-1000 nM
Summary of the method: as §2

HUO3N1 BONE
surviving fraction ([1]; 0.5 nM): 1.01 ± 0.064
surviving fraction ([1]; 1 nM): 0.997 ± 0.054
surviving fraction ([1]; 5 nM): 1.01 ± 0.021
surviving fraction ([1]; 10 nM): 1.02 ± 0.036
surviving fraction ([1]; 50 nM): 1.03 ± 0.076
surviving fraction ([1]; 100 nM): 0.972 ± 0.036
surviving fraction ([1]; 500 nM): 0.737 ± 0.064
surviving fraction ([1]; 1000 nM): 0.533 ± 0.037
surviving fraction (PACLITAXEL [2]; 0.5 nM): 0.808 ± 0.025
surviving fraction (PACLITAXEL [2]; 1 nM): 0.74 ± 0.019
surviving fraction (PACLITAXEL [2]; 5 nM): 0.334 ± 0.011
surviving fraction (PACLITAXEL [2]; 10 nM): 0.23 ± 0.0085
surviving fraction (PACLITAXEL [2]; 50 nM): 0.129 ± 0.0068
surviving fraction (PACLITAXEL [2]; 100 nM): 0.115 ± 0.0063
surviving fraction (PACLITAXEL [2]; 500 nM): 0.094 ± 0.006
surviving fraction (PACLITAXEL [2]; 1000 nM): 0.1 ± 0.018
surviving fraction ([3]; 0.5 nM): 1.01 ± 0.041
surviving fraction ([3]; 1 nM): 1.04 ± 0.032
surviving fraction ([3]; 5 nM): 1.05 ± 0.035
surviving fraction ([3]; 10 nM): 1.01 ± 0.066
surviving fraction ([3]; 50 nM): 1.04 ± 0.024
surviving fraction ([3]; 100 nM): 1.1 ± 0.016
surviving fraction ([3]; 500 nM): 1.01 ± 0.05
surviving fraction ([3]; 1000 nM): 1.03 ± 0.022
surviving fraction (CAMPTOTHECIN [4]; 0.5 nM): 0.761 ± 0.25
surviving fraction (CAMPTOTHECIN [4]; 1 nM): 0.955 ± 0.14
surviving fraction (CAMPTOTHECIN [4]; 5 nM): 0.639 ± 0.046
surviving fraction (CAMPTOTHECIN [4]; 10 nM): 0.373 ± 0.057
surviving fraction (CAMPTOTHECIN [4]; 50 nM): 0.228 ± 0.016
surviving fraction (CAMPTOTHECIN [4]; 100 nM): 0.203 ± 0.025
surviving fraction (CAMPTOTHECIN [4]; 500 nM): 0.1357 ± 0.0011
surviving fraction (CAMPTOTHECIN [4]; 1000 nM): 0.112 ± 0.0079
surviving fraction (YM155 [5]; 0.5 nM): 0.984 ± 0.065
surviving fraction (YM155 [5]; 1 nM): 1.06 ± 0.015
surviving fraction (YM155 [5]; 5 nM): 1.01 ± 0.036
surviving fraction (YM155 [5]; 10 nM): 1.06 ± 0.04
surviving fraction (YM155 [5]; 50 nM): 0.529 ± 0.14
surviving fraction (YM155 [5]; 100 nM): 0.477 ± 0.046
surviving fraction (YM155 [5]; 500 nM): 0.137 ± 0.0093
surviving fraction (YM155 [5]; 1000 nM): 0.0927 ± 0.0065
surviving fraction (GEFITINIB [6]; 0.5 nM): 0.977 ± 0.032
surviving fraction (GEFITINIB [6]; 1 nM): 0.972 ± 0.053
surviving fraction (GEFITINIB [6]; 5 nM): 1.05 ± 0.022
surviving fraction (GEFITINIB [6]; 10 nM): 1.04 ± 0.018
surviving fraction (GEFITINIB [6]; 50 nM): 1.08 ± 0.044
surviving fraction (GEFITINIB [6]; 100 nM): 1.05 ± 0.039
surviving fraction (GEFITINIB [6]; 500 nM): 0.991 ± 0.052
surviving fraction (GEFITINIB [6]; 1000 nM): 0.974 ± 0.052
surviving fraction (OSI-906 [7]; 0.5 nM): 0.938 ± 0.09
surviving fraction (OSI-906 [7]; 1 nM): 0.933 ± 0.068
surviving fraction (OSI-906 [7]; 5 nM): 0.948 ± 0.082
surviving fraction (OSI-906 [7]; 10 nM): 0.92 ± 0.053
surviving fraction (OSI-906 [7]; 50 nM): 0.975 ± 0.047
surviving fraction (OSI-906 [7]; 100 nM): 0.88 ± 0.029
surviving fraction (OSI-906 [7]; 500 nM): 0.779 ± 0.031
surviving fraction (OSI-906 [7]; 1000 nM): 0.794 ± 0.035
surviving fraction (CELECOXIB; 0.5 nM): 1.03 ± 0.04
surviving fraction (CELECOXIB; 1 nM): 0.998 ± 0.039
surviving fraction (CELECOXIB; 5 nM): 1.06 ± 0.057
surviving fraction (CELECOXIB; 10 nM): 1.08 ± 0.061
surviving fraction (CELECOXIB; 50 nM): 1.12 ± 0.017
surviving fraction (CELECOXIB; 100 nM): 1.02 ± 0.039
surviving fraction (CELECOXIB; 500 nM): 1 ± 0.023
surviving fraction (CELECOXIB; 1000 nM): 0.974 ± 0.036
surviving fraction (CARBOPLATIN [8]; 0.5 nM): 1.08 ± 0.016
surviving fraction (CARBOPLATIN [8]; 1 nM): 1.06 ± 0.061
surviving fraction (CARBOPLATIN [8]; 5 nM): 1.13 ± 0.065
surviving fraction (CARBOPLATIN [8]; 10 nM): 1.12 ± 0.046
surviving fraction (CARBOPLATIN [8]; 50 nM): 1.11 ± 0.05
surviving fraction (CARBOPLATIN [8]; 100 nM): 1.09 ± 0.034
surviving fraction (CARBOPLATIN [8]; 500 nM): 1.05 ± 0.016
surviving fraction (CARBOPLATIN [8]; 1000 nM): 0.98 ± 0.068
area under dose-response curve [9]: 3.12
area under dose-response curve (PACLITAXEL [10]): 0.938
area under dose-response curve [11]: 3.42
area under dose-response curve (CAMPTOTHECIN [12]): 1.37
area under dose-response curve (YM155 [13]): 2.22
area under dose-response curve (GEFITINIB [14]): 3.38
area under dose-response curve (OSI-906 [15]): 2.99
area under dose-response curve (CARBOPLATIN [16]): 3.59
